Test results published in US12721892B2, “Methods and compositions for chimeric antigen receptor targeting cancer cells” (The University of North Carolina at Chapel Hill, priority 2019, dated 2026).
Entries after “also recorded” stand apart in the source; their conditions may differ.

Tests used:
[1] = Humanized mouse CRS model of SHP1 heterodimerization; type: in vivo, humanized NSG mice
From the text: For the humanized mouse model to evaluate the effects of SHP1 heterodimerization in CAR-T cells in vivo, humanized NSG (NOD-scid IL2Rg^null) mice (NSG-hu HSC) were generated. Briefly, human fetal liver tissues were obtained from elective or medically indicated termination of pregnancy through a non-profit intermediary working with outpatient clinics (Advanced Bioscience Resources). CD34^+ hematopoietic stem cells (HSC) were transplanted in newborn NSG mice through intra-liver injection of 2×10^5 purified HSC. Human immune cell engraftment was detected by flow cytometry 12 weeks after transplantation. Standard parameters of evaluation of CRS in humanized NSG mice was performed. Mice were infused with 5×10^6 CAR-T cells at day 0, and plasma was collected at days 1 and 2. AP21967 was administrated intraperitoneally at 10 mg/kg dose. Weight of each mouse was normalized to starting weight before CAR-T cell infusion. In a second CRS murine model, 7-10-week-old female C.B-Igh-1b/GbmsTac-Prkdc^scid-Lyst^bgN7 (SCID-beige, Taconic Biosciences) mice were injected i.p. with Raji-FFluc cells. After 21 days, mice were grouped based on the BLI (total flux). Mice were infused i.p. with 30×10^6 CAR-T cells. Weight of each mouse was normalized to starting weight before CAR-T cell infusion.

Daudi-FFLuc cells = experiment: NSG xenograft lymphoma model of SHP1 heterodimerization; type: in vivo, NSG mice
Procedure: Animal studies were performed in accordance with the Institutional Animal Care and Use Committee of UNC. For long-term in vivo cytotoxicity, male or female NSG (NOD-scid IL2Rg^null) mice were injected intravenously (i.v.) with 2×10^6 CD19^+ Daudi tumor cell line labeled with the Firefly luciferase gene (Daudi-FFLuc). Four to seven days later, mice received T cells control or expressing CARs intravenously (i.v.). For tumor re-challenging experiments, 2×10^6 CD19^+ Daudi-FFLuc cells were i.v. injected at indicated time point. Tumor growth was monitored every 2-3 days by injecting mice intraperitoneally (i.p.) with D-luciferin (150 mg/kg, Xenolight, PerkinElmer). Photon emission was analyzed using the Xenogen-IVIS Imaging System. For short-term in vivo T cell activation, NSG mice were injected with Daudi-FFLuc cells i.v. Two weeks later, CAR19.28ζ-Ts were labeled with Cell-trace Violet (Thermo Scientific) and CAR19.BBζ-Ts were labeled with CFSE (Thermo Scientific) as per manufacturer's instructions. Cells were mixed 1:1, and a total 1×10^7 cells were i.v. injected in each mouse. Peripheral blood, bone marrow, lung and spleen were harvested 6 hours after T cell injection, dissociated into single cells and stained with anti-human CD45-PE, CD3-APC and CD69-PE-Cy7 Abs. […] Tumor growth was monitored twice a week.

[2] = test system: CD19+ BV173 tumor cell line; experiment: Co-culture / stimulation with CD19+ BV173 tumor cells; type: cell-based, human
Procedure: (§1) For activation of CD19-specific CAR-T cells with the anti-idiotype Ab or CD19^+ tumor cells, anti-CAR19 and anti-CD3 Abs were serially diluted 2-fold, and coated on non-tissue culture treated 96-well plates for 16 hours. Plates were washed twice before plating T cells (2.5×10^5 cells/well). Plates were centrifuged at 1,000 g for 5 min, and incubated at 37° C. for 6 hours. Plates were then briefly spun, and 200 μl of the supernatant was collected for ELISA. Cells were collected and stained with anti-CAR19, CD4-PE, CD69-FITC Abs and Zombie Aqua™ dye (Biolegend) at 4° C. for 30 min. Samples were fixed and stored for flow cytometry analysis. For tumor cell-mediated activation, 5×10^4 BV173 tumor cells were seeded in each well of 96-well plates, and T cells were serially diluted and seeded. Six hours later, supernatant was collected for ELISA.
(§2) Cytokines in culture supernatants and plasma were measured using enzyme-linked immunosorbent assay (ELISA) or magnetic luminex assay following manufacturer's instructions (R&D Systems). Data were collected and analyzed using the Lumina-200 System and the Bio-Plex Manager 6.1 software (Bio-Rad).
For co-culture assays, CD19^+ BV173 tumor cells were seeded into 24-well plates with 5×10^5 cells/well and T cells were added at different effector to target (E:T) ratios (E:T=1:1 or 1:5). After 24 hours, supernatant was collected for ELISA. Three days later, cells were collected and stained with anti-human CD3 and CD19 Abs for flow cytometry analysis.

CAR-CD3ζ phosphorylation = experiment: Western blot of CAR-CD3ζ and proximal signaling phosphorylation; type: cell-based, human
Procedure: For western blot assays, protein lysate was normalized according to the amount of CAR expression and resolved on 4%-15% SDS polyacrylamide gel electrophoresis gels (SDS-PAGE, Bio-Rad). After protein transfer onto Polyvinylidene fluoride membranes (Bio-Rad), membranes were blocked in 5% non-fat milk in TBS-T and incubated with primary and secondary Abs in TBS-T with 1% milk. The following Abs were used: anti-CD3pY83 and anti-CD3pY142 (Abcam), anti-ZAP70pY319, anti-ZAP70, anti-LATpY191, anti-LAT, anti-LCK, anti-THEMIS, anti-SHP1 and anti-HA tag (Cell Signaling Technology), anti-CD3ζ, anti-FKBP, anti-β-actin (Santa Cruz), anti-FLAG (M2) (Sigma) and horseradish peroxidase conjugated secondary Abs (Goat-anti-mouse, Goat-anti-Rabbit from Thermo Scientific). Membranes were developed with SuperSignal West Femto Maximum Sensitivity Substrate (Thermo Scientific) on a Gel station (Bio-Rad).

[3] = test system: CD69 expression and cytokine release of CAR-T cells; experiment: Activation of CAR-T cells with anti-CAR19 anti-idiotype Ab (CD69 expression, cytokine release); type: cell-based, human
Procedure: as §1, §2

[4] = test system: Ca2+ influx in CAR-T cells; experiment: Ca2+ influx assay after anti-CAR19 Ab stimulation; type: cell-based, human; conditions: stimulated with α-CAR19 antibody; FIG. 6
Procedure: For Ca^2+ influx assays, T cells were incubated with Ca^2+ indicator as per manufacturer's instructions (Ca^2+ influx assay, BD Bioscience). Cells were incubated with anti-CAR19 Ab followed by goat anti-mouse secondary Ab on ice. Ca^2+ current was measured by flow cytometry for time-lapsed fluorescence change. Cells were first collected on ice as the baseline of the Ca^2+ current, and then activated at 37° C. for the Ca^2+ current during T cell activation.

[5] = transient AP21967, FIGS. 21B-21C

Compound: CO[C@H]1[C@@H](O)[C@H](C)C[C@H](C)/C=C/C=C/C=C(\C)[C@@H](c2c[nH]c3c(C)cccc23)C[C@@H]2CC[C@@H](C)[C@@](O)(O2)C(=O)C(=O)N2CCCC[C@H]2C(=O)O[C@H]([C@H](C)C[C@@H]2CC[C@@H](O)[C@H](OC)C2)C[C@H](O)[C@H](C)/C=C(\C)[C@H]1O [AP21967]
- Weight loss ([1]; AP21967 twice on day 1, 10 mg/kg intraperitoneally, FIG. 21A): alleviated their weight loss
- Therapeutic effect of CAR19.28ζ-T cells in vivo ([1]; cell counts on day 21, FIG. 21D): did not impair the therapeutic effect
- Release in the plasma of human GM-CSF [1, 5]: significantly reduced
- Release in the plasma of human IFNγ [1, 5]: significantly reduced
- Release in the plasma of human IL-6 [1, 5]: significantly reduced
- Release in the plasma of human TNFα [1, 5]: significantly reduced
- IFNγ release in vivo (plasma) (Daudi-FFLuc cells; AP21967 twice on day 2, 10 mg/kg intraperitoneally, FIG. 20A): reduced IFNγ release by CAR19.28ζ-T cells co-expressing SHP1
- Antitumor effects in vivo (Daudi-FFLuc cells; AP21967 twice on day 2, tumor growth days 7-39, FIG. 20B): without impairing their antitumor effects
- Antitumor activity in vitro ([2]; CAR19.28ζ-T cells with FKBP-SHP1, BV173 co-culture): without compromising their antitumor activity in vitro
- IFNγ release / production ([2]; CAR19.28ζ.FRB-T cells with FKBP-SHP1 and BV173 at 1:5 ratio, FIGS. 17 and 18): reduces IFNγ release by CAR19.28ζ-T cells in a reversible manner; also recorded: reversible regulation of IFNγ production
- Cytotoxicity ([2]; FKBP-SHP1 co-expressed, FIG. 17): controlled cytotoxicity
- CAR-CD3ζ phosphorylation upon antigen binding (CAR-CD3ζ phosphorylation; CAR19.28ζ.FRB-T cells co-transduced with FKBP-SHP1, 1 μM AP21967, FIG. 16): tunes down CAR-CD3ζ phosphorylation upon antigen binding
- Antigen-independent CAR-CD3ζ phosphorylation of CAR19.28ζ-Ts (CAR-CD3ζ phosphorylation; FKBP-SHP1 co-expressed, FIG. 16): reduce antigen-independent CAR-CD3ζ phosphorylation

Compound: [Na+].[Na+].[Na+].[O]=[V]([O-])([O-])[O-] [Na3 VO4]
- Antigen-independent phosphorylation of CAR-CD3ζ in CAR19.BBζ-T cells (CAR-CD3ζ phosphorylation; 200 μM phosphatase inhibitor, FIG. 2E): promoted

Compound: CC(C)(C)n1nc(-c2ccc(Cl)cc2)c2c(N)ncnc21 [PP2]
- CAR-CD3ζ basal phosphorylation of CAR19.28ζ-T cells on addition of kinase inhibitor (CAR-CD3ζ phosphorylation; inhibitor at 10 μM for 16 hours, FIG. 2A): abrogated
- Responsiveness of CAR19.28ζ-T cells to CAR crosslinking (CD69, IFNγ and IL-2) after PP2 pretreatment ([3]; 10 μM PP2 for 16 hours, low doses of anti-CAR19 antibody, FIG. 2B): reduced their responsiveness to CAR crosslinking with low doses of anti-CAR19 antibody to similar levels of CAR19.BBζ-T cells
- PP2-mediated inhibition in CAR19.28ζ-T cells at high doses of anti-CAR19 antibody ([3]; 10 μM PP2 pretreatment, high doses of anti-CAR19 antibody): partially overcame

Compound: CD8α-wt: wild type CD8α
- Basal CAR-CD3ζ phosphorylation in CD4+ T cells co-expressing CAR.19.BK (CAR-CD3ζ phosphorylation; co-expression of CD8α construct, FIG. 2D top): increased

Compound: LCK: full-length human LCK, FLAG-tagged, overexpressed in CAR-T cells
- CAR-CD3ζ phosphorylation in CAR19.28ζ-Ts with LCK overexpression (CAR-CD3ζ phosphorylation; FIG. 5): enhanced
- Basal CAR-CD3ζ phosphorylation in CAR19.BBζ-T cells with LCK overexpression (CAR-CD3ζ phosphorylation; day 10 of in vitro expansion, three donors, FIG. 5): increasing; also recorded: dramatically increased CAR-CD3ζ phosphorylation of CAR19.BBζ to a comparable level as CAR19.28ζ
- Ca2+ influx with LCK overexpression [4]: increasing; also recorded: correspondingly increased
